Reference: ChEMBL document CHEMBL1156829 (Proc Natl Acad Sci U S A, 2008)

Key:
Plasmodium falciparum [1] = experiment: NOVARTIS: Inhibition of Plasmodium falciparum 3D7 (drug-susceptible) proliferation in erythrocyte-based infection assay; format: functional, organism-based; conditions: Plasmodium falciparum, 3D7
Plasmodium falciparum [2] = experiment: NOVARTIS: Inhibition of Plasmodium falciparum W2 (drug-resistant) proliferation in erythrocyte-based infection assay; format: functional, organism-based; conditions: Plasmodium falciparum, W2; read-out: EC50
[3] = NOVARTIS: Cytotoxicity against human hepatocellular carcinoma cell line (Huh7); format: toxicity, cell-based, Huh-7; conditions: Huh7 cells (hepatocellular carcinoma cell line)

| Compound | EC50 (Plasmodium falciparum [1]) [µM] | EC50 (Plasmodium falciparum [2]) [µM] | CC50 [3] [µM] |
| --- | --- | --- | --- |
| Cc1ccc(C[n+]2cc(-c3ccc(F)cc3)n3c2CCC3)cc1 | 0.867 | 0.321 | > 100 |
| NCCNc1cc(-c2ccccc2)nc2ccccc12 | 0.318 | 0.375 | 23 |
| O=C(CSc1nc2ccccc2c(=O)n1C1CC1)Nc1cc(C(F)(F)F)ccc1Cl | 0.719 | 8.11 | > 100 |
| CCN(CC)CCCNC(=S)N(Cc1ccccc1)Cc1cc2cc(C)c(Cl)cc2[nH]c1=O | 1.94 | 1.17 | 20.9 |
| CC(C)c1ccc(NC(=O)c2ccc(NCCCN(C)Cc3ccccc3)c([N+](=O)[O-])c2)cc1 | 2.48 | 3.2 | > 100 |
| COCCOC(=O)C1=C(C)NC2=C(C(=O)CC(c3ccc(OC)c(OC)c3)C2)C1c1ccccc1C (configuration not stated) | 0.11 | 0.0323 | > 100 |
| CCC(CO)NCC(O)Cn1c2ccc(Cl)cc2c2cc(Cl)ccc21 (configuration not stated) | 0.368 | 0.0406 | 20.1 |
| Nc1c(C(=O)Nc2ccc(Br)cc2)sc2nc3c(c(-c4cccs4)c12)CCC3 | 1.04 | 0.776 | > 100 |
| NC(=O)c1ccc2c(c1)N=C(c1cccnc1)N(C1CC1)C2 | 1.29 | 0.648 | > 10 |
| O=C(Nc1ccc(-c2cnc(-c3ccc(NC(=O)c4cccc([N+](=O)[O-])c4)cc3)nc2)cc1)c1cccc([N+](=O)[O-])c1 | > 0.48 | 0.681 | > 10 |
| N#Cc1c(-c2ccccc2)cc(N2CCN(Cc3ccc(Cl)cc3)CC2)n2c1nc1ccccc12 | 1.12 | 1.71 | > 100 |
| O=C1Nc2ccc(Br)cc2C12NCCc1c2[nH]c2ccccc12 (configuration not stated) | 0.198 | 0.111 | 42.2 |
| Clc1cccc(Cl)c1C[n+]1ccc2ccccc2c1 | 1.89 | 0.867 | > 100 |
| N#CC(=Cc1cn(Cc2ccccc2Cl)c2ccccc12)c1nn(CCO)c(N)c1C#N | 0.273 | 0.294 | 44.8 |
| CCN(CC)CCCC(C)N=c1cc(C=Cc2ccccc2Cl)[nH]c2cc(Cl)ccc12 (configuration not stated) | 0.0507 | 0.0257 | 18.8 |
| CC1CCN(C(=O)CSc2nc(NCc3ccccc3)c3ccccc3n2)CC1 | 0.673 | > 1.58 | > 10 |
| c1ccc(Nc2ccnc(Nc3ccccc3)n2)cc1 | 0.804 | 1.93 | > 49 |
| O=C1CC(N2CCCCCC2)C(=O)N1c1ccc(N2C(=O)CC(N3CCCCCC3)C2=O)cc1 (configuration not stated) | > 1.25 | > 0.155 | > 10 |
| COC(=O)C1=C(C)NC2=C(C(=O)CC(c3ccccc3)C2)C1c1ccc(Cl)cc1 (configuration not stated) | 1.22 | 0.333 | > 100 |
| O=C(Nc1c2ccccc2nc2ccccc12)c1cc(Cl)ccc1O | 1.13 | 0.484 | > 100 |
| CC(=O)N(Cc1ccc(F)cc1)C1=C(NCCc2ccccc2)C(=O)c2ccccc2C1=O | 0.00593 | 0.0182 | 2.91 |
| COCCCNc1nc2cc(OC)c(OC)cc2c2nc(-c3ccccc3)nn12 | 0.621 | 0.541 | > 100 |
| CC(=O)N(C1=C(N2CCCCC2)C(=O)c2ccccc2C1=O)c1cccc(F)c1 | 0.146 | 0.109 | 23.7 |

| Compound | EC50 (Plasmodium falciparum [1]) [µM] | EC50 (Plasmodium falciparum [2]) [µM] | CC50 [3] [µM] |
| --- | --- | --- | --- |
| COc1cc2c(cc1OC)-c1cc3ccc(OC)c(OC)c3c[n+]1CC2 [PALMATINE CHLORIDE] | 0.697 | 0.766 | > 100 |
| CC(Cc1ccsc1)Nc1nc2nonc2nc1N(C)C (configuration not stated) | 0.81 | 0.881 | > 100 |
| Clc1ncnc2ncn(Cc3ccccc3)c12 | 1.65 | 1.09 | 58.1 |
| C/C(=C\c1csc(C)n1)[C@@H]1C[C@@H]2O[C@@H]2CCC[C@H](C)C(O)[C@@H](C)C(=O)C(C)(C)[C@@H](O)CC(=O)O1 (some centres not stated) | 1.03 | 0.155 | > 10 |
| COc1ccc(-c2c[n+](CC(=O)c3cccc(OC)c3)c3n2CCC3)cc1 | 0.954 | 0.53 | > 100 |
| O=C(CCn1c(=O)[nH]c2ccccc21)NCC1Cc2cccc(-c3ccncc3)c2O1 (configuration not stated) | 3.25 | 2.98 | > 100 |
| CC(C)CCNC(=O)C1CSC(c2ccc(F)cc2)N1C(=O)c1ccc(Cl)cc1Cl (configuration not stated) | > 12.5 | 8.18 | > 100 |
| COC(=O)c1sc2nc(CN3CCCC(C)C3)ccc2c1NC(=O)c1ccc(C)s1 (configuration not stated) | 1.81 | 1.56 | > 100 |
| Cc1cc(NC(=O)C=Cc2ccccc2Cl)ccc1Br | 1.27 | 0.344 | > 100 |
| Cc1c(Cl)cccc1NC(=O)C1C(C(=O)O)C2C=CC1C21CC1 (configuration not stated) | 1.25 | 1.4 | > 10 |
| CCN(Cc1ccccc1)c1ncnc2ccc(Br)cc12 | 7.44 | > 12.5 | 95.3 |
| CCCN(CCC)CCNC(=O)c1cc2c(-c3ccc(Cl)cc3)nn(C)c2s1 | 0.253 | 0.703 | 45.8 |
| CCN(CC)CCCC(C)Nc1cc(/C=C/c2ccc([N+](=O)[O-])cc2)nc2ccc(OC)cc12 (configuration not stated) | 0.743 | 1.3 | > 6.25 |
| Cc1ccc2c(C)nc(Nc3nc(C)cc(-c4ccccc4)n3)nc2c1 | 0.975 | 0.569 | > 100 |
| CC(=NNc1nc(-c2ccccc2O)nc2ccccc12)c1ccccc1O | 0.742 | 0.206 | > 100 |
| C=C[C@H]1CN2CC[C@H]1C[C@@H]2[C@@H](OC(=O)c1ccco1)c1ccnc2ccccc12 | 0.149 | 0.104 | > 10 |
| O=C(O)CCNc1ccccc1[N+](=O)[O-] | > 8.54 | > 4.31 | > 100 |
| CC(=O)Nc1nc(C)c(-c2csc(Nc3ccc(Cl)cc3)n2)s1 | 0.14 | 0.0978 | 34.4 |
| CCOC(=O)c1cnc2c(Cl)cccc2c1Nc1cccc(C(C)=O)c1 | 0.785 | 0.784 | > 100 |
| c1ccc(-c2ccnc3c2ccc2c(-c4ccccc4)ccnc23)cc1 | 0.329 | 0.43 | > 100 |
| CCCS(=O)(=O)c1c(S(=O)(=O)CCC)c2ccc(C(C)=O)cn2c1C(=O)c1ccc(C)cc1 | > 12.5 | 1.83 | > 100 |
| CCOC(=O)c1cnc2ccc(OC)cc2c1Nc1ccc(N2CCN(C)CC2)cc1 | 1.09 | > 1.7 | > 10 |
| OC1(c2ccc(Br)cc2)CCN(C2CCN(CCc3ccccc3)CC2)CC1 | 0.136 | 0.527 | 4.77 |

| Compound | EC50 (Plasmodium falciparum [1]) [µM] | EC50 (Plasmodium falciparum [2]) [µM] | CC50 [3] [µM] |
| --- | --- | --- | --- |
| COc1ccc(-c2nc(NC(=O)CS(=O)(=O)c3ccc(F)cc3)sc2C)cc1 | 0.212 | 0.56 | 44.1 |
| COCCNC(=O)[C@@H]1C[C@@H](NCCC2=C(C)CCCC2(C)C)CN1C(C)C | > 12.5 | 4.3 | > 100 |
| CCc1c(C)c(C#N)c2nc3ccccc3n2c1NCc1ccco1 | 0.271 | 0.333 | > 100 |
| CSc1cccc([C@@H]2C[C@H]3CN(c4ccccc4)C(=O)[C@]34CCCN24)c1 | 1.21 | 0.48 | 23.5 |
| COc1cc(NC(C)CCCN(Cc2ccc(Cl)cc2)C(=O)Nc2ccc(Cl)cc2Cl)c2ncccc2c1 (configuration not stated) | 0.416 | < 0.0171 | 5.6 |
| Cc1cc(Cl)ccc1OC(C)C(=O)N1CCc2ccccc21 (configuration not stated) | 0.632 | 0.812 | > 100 |
| C=CCNC(=O)c1ccc2c(c1)N=C(CC(C)c1ccccc1)N(CCCN1CCCC1=O)C2 (configuration not stated) | > 1.25 | 0.0267 | > 10 |
| Cc1nc(NN=Cc2c(O)ccc3ccccc23)cc(N2CCCCC2)n1 | 0.609 | 0.339 | > 100 |
| N#Cc1cccc(/C=C/C(=O)O)c1 | 1.65 | 0.752 | > 10 |
| O=C1c2cccc(N3CCN(Cc4cccn4-c4nccs4)CC3)c2C(=O)N1Cc1ccc(Cl)cc1 | 5.47 | > 12.5 | > 100 |
| CCc1cc2c(cc1-c1csc(NC(=N)N)n1)C(C)(C)CCC2(C)C | 0.733 | 0.961 | 24.6 |
| Cc1ccccc1OCCSc1nc2ccc(NC(=O)c3ccccc3)cc2s1 | 9.76 | > 7.47 | > 100 |
| O=c1c(=Cc2ccc(Cl)cc2)sc2nc3ccccc3n12 | > 0.436 | 0.19 | > 10 |
| COc1ccc(Cl)cc1NC(=S)NNC(=O)c1cccnc1 | 0.536 | 0.664 | > 100 |
| CC(=O)Nc1nc(C)c(-c2csc(Nc3ccc(Br)cc3)n2)s1 | 0.696 | 0.859 | 38.1 |
| N#Cc1ccc(NC(=O)NC2CC3CCCC(C2)N3CCc2ccccc2)cc1 (configuration not stated) | 0.362 | 0.425 | 48.6 |
| CCOC(=O)C1=C(C)NC2=C(C(=O)C(C(=O)OCC)C(c3ccc(OC)cc3)C2)C1c1ccc([N+](=O)[O-])cc1 (configuration not stated) | 0.685 | 0.134 | > 100 |
| CN(CCCNc1ccnc2cc(Cl)ccc12)C(=O)c1ccc(Cl)cc1 | 0.122 | 0.0756 | > 8.53 |
| O=C(CSc1ccc2nnc(-c3cccs3)n2n1)Nc1ccccc1 | 1.4 | > 3.47 | > 100 |
| Cc1ccccc1OCC(O)Cn1c(NC2CCCCC2)nc2c1c(=O)[nH]c(=O)n2C (configuration not stated) | > 1.7 | 0.549 | > 10 |
| CCOC(=O)c1nnn(-c2nonc2N)c1-c1ccc(Br)cc1 | 0.287 | 0.23 | > 100 |
| CCC(=O)N1CCc2cc(Br)cc(S(=O)(=O)N3CCN(CC)CC3)c21 | > 1.63 | > 0.744 | > 10 |
| COc1ccc(-c2nc3cc(Cc4ccc5[nH]c(-c6ccc(OC)cc6)nc5c4)ccc3[nH]2)cc1 | 0.234 | 0.775 | 6.22 |
